tested on: Radical scavenging activity; assay: Antioxidant activity assessed as DPPH free radical scavenging activity after 30 mins by multilabel counter; type: functional

Row | SMILES | IC50 [µM]
1 | COc1cc(CC[C@@H](O)C[C@@H](O)CCc2ccc(O)c(OC)c2)ccc1O | 20.6
2 | COc1cc(CC[C@H](O)C[C@@H](O)CCc2ccc(O)c(OC)c2)ccc1O | 20.1
3 | COc1cc(CC[C@H](O)C[C@@H](O)CCc2cc(OC)c(O)c(OC)c2)ccc1O | 16.4
4 | COc1cc(CC[C@@H](O)C[C@@H](O)CCc2ccc(O)c(O)c2)ccc1O (relative stereo) | 24
5 | Cc1c(C)c2c(c(C)c1O)CC[C@@](C)(CCC[C@H](C)CCC[C@H](C)CCCC(C)C)O2 [ALPHA-TOCOPHEROL] | 37.5
6 | O=C1O[C@H]([C@@H](O)CO)C(O)=C1O [ASCORBIC ACID] | 35.6
